Measured values taken from ChEMBL document CHEMBL2321651, “Structure-activity relationship study on benzoic acid part of diphenylamine-based retinoids” (Bioorg Med Chem Lett, 2013).
Activity calls are given as the source filed them. The calls are words filed in the database; no cut-off is given here.

Tests used:
HL-60 [1] = test: Induction of human HL60 cell differentiation in presence of 1 x 10^-10 M RAR agonist Am80; assay type: functional, cell-based
HL-60 [2] = test: Induction of human HL60 cell differentiation; assay type: functional, cell-based
Retinoid X receptor = target: T1, Retinoid X receptor (Homo sapiens, UniProt P28702+P48443+P19793); test: Agonist activity at RXR (unknown origin) in presence of RAR agonist Am80; assay type: protein assay
T1 sequence (P28702 whole entry): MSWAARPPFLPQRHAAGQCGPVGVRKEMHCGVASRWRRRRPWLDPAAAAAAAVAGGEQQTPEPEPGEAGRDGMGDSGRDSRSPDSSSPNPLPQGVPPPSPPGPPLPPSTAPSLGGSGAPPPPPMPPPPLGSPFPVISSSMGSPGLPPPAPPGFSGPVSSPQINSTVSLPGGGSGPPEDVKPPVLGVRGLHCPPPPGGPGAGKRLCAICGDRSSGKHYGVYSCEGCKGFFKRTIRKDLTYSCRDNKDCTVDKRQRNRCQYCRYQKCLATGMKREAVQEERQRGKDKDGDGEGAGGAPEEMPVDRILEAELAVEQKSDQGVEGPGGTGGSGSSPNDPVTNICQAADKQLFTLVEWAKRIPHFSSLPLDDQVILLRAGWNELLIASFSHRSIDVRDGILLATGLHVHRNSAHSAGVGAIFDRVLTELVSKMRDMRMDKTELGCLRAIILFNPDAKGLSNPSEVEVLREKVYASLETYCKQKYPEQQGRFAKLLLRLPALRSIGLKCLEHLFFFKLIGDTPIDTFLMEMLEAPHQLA
T1 sequence (P48443 whole entry): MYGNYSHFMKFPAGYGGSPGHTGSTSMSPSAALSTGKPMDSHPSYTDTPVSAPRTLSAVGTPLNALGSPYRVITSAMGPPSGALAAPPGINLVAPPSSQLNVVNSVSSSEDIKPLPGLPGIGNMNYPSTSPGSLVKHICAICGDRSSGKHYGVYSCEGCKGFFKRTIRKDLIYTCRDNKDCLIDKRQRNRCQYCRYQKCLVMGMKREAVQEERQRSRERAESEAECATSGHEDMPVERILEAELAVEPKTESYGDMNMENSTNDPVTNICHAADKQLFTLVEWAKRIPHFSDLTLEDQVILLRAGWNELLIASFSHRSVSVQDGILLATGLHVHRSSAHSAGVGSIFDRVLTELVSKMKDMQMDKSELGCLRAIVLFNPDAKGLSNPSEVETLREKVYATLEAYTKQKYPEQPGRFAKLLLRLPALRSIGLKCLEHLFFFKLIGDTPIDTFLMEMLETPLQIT
T1 sequence (P19793 whole entry): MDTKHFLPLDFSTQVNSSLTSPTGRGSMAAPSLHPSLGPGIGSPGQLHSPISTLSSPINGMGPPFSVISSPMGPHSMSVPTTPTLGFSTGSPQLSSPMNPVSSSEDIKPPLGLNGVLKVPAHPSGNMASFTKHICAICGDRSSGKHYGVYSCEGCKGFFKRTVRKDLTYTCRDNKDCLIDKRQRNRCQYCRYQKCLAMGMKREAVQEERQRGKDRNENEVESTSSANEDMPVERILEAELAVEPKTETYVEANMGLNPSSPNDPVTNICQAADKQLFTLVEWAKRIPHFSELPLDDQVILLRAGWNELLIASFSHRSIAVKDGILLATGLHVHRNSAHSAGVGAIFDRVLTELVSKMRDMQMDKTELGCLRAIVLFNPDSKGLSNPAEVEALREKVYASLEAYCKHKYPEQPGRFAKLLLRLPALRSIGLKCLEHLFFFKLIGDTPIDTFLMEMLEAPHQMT

[3] = Agonist activity at RAR/RXR (unknown origin); set-up: species or system Homo sapiens
[4] = Agonist activity at RAR/RXR (unknown origin) in presence of RAR agonist Am80; set-up: species or system Homo sapiens
HL-60 [5] = test: Inhibition of Am80-induced human HL60 cell differentiation; assay type: cell-based
HL-60 [6] = test: Induction of human HL60 cell differentiation at 3.3 x 10^-10 M; assay type: functional
HL-60 [7] = test: Induction of human HL60 cell differentiation at 1 x 10^-10 M; assay type: functional

Row | Compound | Activity (HL-60 [1]) | Activity (HL-60 [2]) | other results
1 | CN(c1ccc(/C=C/C(=O)O)cc1)c1ccc2c(c1)C(C)(C)CCC2(C)C | Active | – | EC50 (HL-60 [2]): 22 nM
2 | CCCN(c1ccc(C(=O)O)cc1)c1cc2c(cc1C)C(C)(C)CCC2(C)C | Active | – | EC50 (Retinoid X receptor): 1.4 ×10⁻¹⁰ M
3 | Cc1cc2c(cc1N(C)c1ccc(CCC(=O)O)cc1)C(C)(C)CCC2(C)C | Active | Active | –
4 | CN(c1ccc(C(=O)O)cc1)c1ccc2c(c1)C(C)(C)CCC2(C)C | – | Active | EC50 ([3]; read-out: EC50): 360 nM; EC50 [4]: 6.6 nM
5 | Cc1cc2c(cc1N(C)c1ccc(C(=O)O)cc1)C(C)(C)CCC2(C)C | Active | Active | EC50 (Retinoid X receptor): 1.3 ×10⁻¹⁰ M
6 | CCCN(c1ccc(CCC(=O)O)cc1)c1ccc2c(c1)C(C)(C)CCC2(C)C | Active | Active | –
7 | CCCN(c1ccc(/C=C/C(=O)O)cc1)c1cc2c(cc1C)C(C)(C)CCC2(C)C | Active | Active | –
8 | CCCN(c1ccc(CCC(=O)O)cc1)c1cc2c(cc1C)C(C)(C)CCC2(C)C | Active | Active | –
9 | CN(c1ccc(CCC(=O)O)cc1)c1ccc2c(c1)C(C)(C)CCC2(C)C | Active | Active | –
10 | Cc1cc(C(=O)O)ccc1N(C)c1ccc2c(c1)C(C)(C)CCC2(C)C | inactive | inactive | inhibition (INH) (HL-60 [5]): Dose-dependent effect
11 | CCCN(c1ccc(/C=C/C(=O)O)cc1)c1ccc2c(c1)C(C)(C)CCC2(C)C | Active | Active | –
12 | Cc1cc2c(cc1N(C)c1ccc(/C=C/C(=O)O)cc1)C(C)(C)CCC2(C)C | Active | – | EC50 (HL-60 [2]): 38 nM
13 | CCCN(c1ccc(C(=O)O)cc1)c1ccc2c(c1)C(C)(C)CCC2(C)C | Active | – | EC50 [3]: Not Active; EC50 [4]: 1.5 nM
14 | CC1(C)CCC(C)(C)c2cc(NC(=O)c3ccc(C(=O)O)cc3)ccc21 [TAMIBAROTENE] | – | – | Activity (HL-60 [6]): 60%; Activity (HL-60 [7]): 5%
